Laboratory results from ChEMBL document CHEMBL5532639, “Heterocyclic pyrimidine derivatives as promising antibacterial agents” (Eur J Med Chem, 2023).
Converted amounts (≈) assume the structure as drawn.

Legend:
Bacillus subtilis [1] = test: Antibacterial activity against Bacillus subtilis ATCC 465 assessed as reduction in bacterial growth measured after 24 hrs by Mueller-Hinton broth assay; type: functional
Staphylococcus aureus [2] = test: microbe, parasite or virus in culture; details: ATCC 25923, 24 h
Description: Antibacterial activity against Staphylococcus aureus ATCC 25923 assessed as reduction in bacterial growth measured after 24 hrs by Mueller-Hinton broth assay

Escherichia coli [3] = test: microbe, parasite or virus in culture; details: ATCC 25922, 24 h
Description: Antibacterial activity against Escherichia coli ATCC 25922 assessed as reduction in bacterial growth measured after 24 hrs by Mueller-Hinton broth assay

Enterococcus raffinosus = test: Antibacterial activity against Enterococcus raffinosus assessed as bacterial growth inhibition incubated for 24 hrs by CLSI protocol based Mueller-Hinton broth assay; type: functional
Staphylococcus aureus [4] = test: Antibacterial activity against Staphylococcus aureus assessed as bacterial growth inhibition incubated for 24 hrs by CLSI protocol based Mueller-Hinton broth assay; type: functional
Salmonella typhimurium [5] = test: Antibacterial activity against Salmonella typhimurium DT104 assessed as reduction in bacterial growth inhibition measured after 24 hrs by Mueller Hinton Agar dilution method; type: functional, Salmonella enterica subsp. enterica serovar Typhimurium; details: Salmonella enterica
Vibrio parahaemolyticus = test: Antibacterial activity against Vibrio parahaemolyticus assessed as reduction in bacterial growth inhibition measured after 24 hrs by Mueller Hinton Agar dilution method; type: functional
[6] = system: Salmonella enterica subsp. enterica serovar Paratyphi B; test: Antibacterial activity against Salmonella paratyphi B CICC 21495 assessed as reduction in […]; type: functional; details: time lower 48 hrs
Edwardsiella tarda = test: Antimicrobial activity against Edwardsiella tarda assessed as inhibition of microbial growth incubated for 18 hrs by CLSI protocol based Mueller-Hinton broth assay; type: functional
Vibrio cholerae [7] = test: Antibacterial activity against Vibrio cholerae assessed as inhibition of bacterial growth incubated for 24 hrs by broth microdilution method; type: functional
Staphylococcus aureus [8] = test: Antimicrobial activity against Staphylococcus aureus assessed as inhibition of microbial growth incubated for 18 hrs by CLSI protocol based Mueller-Hinton broth assay; type: functional
Escherichia coli [9] = test: Antimicrobial activity against Escherichia coli assessed as inhibition of microbial growth incubated for 18 hrs by CLSI protocol based Mueller-Hinton broth assay; type: functional
Vibrio cholerae [10] = test: Antibacterial activity against Vibrio cholerae measured after 18 to 20 hrs by broth microdilution method; type: functional; details: time 18-20 hrs
Enterococcus faecalis = test: Antimicrobial activity against Enterococcus faecalis assessed as inhibition of microbial growth incubated for 18 hrs by CLSI protocol based Mueller-Hinton broth assay; type: functional
Salmonella typhimurium [11] = test: Antimicrobial activity against Salmonella typhimurium DT104 assessed as inhibition of microbial growth incubated for 18 hrs by CLSI protocol based Mueller-Hinton broth assay; type: functional, Salmonella enterica subsp. enterica serovar Typhimurium; details: Salmonella enterica
Pseudomonas aeruginosa [12] = test: Antimicrobial activity against Pseudomonas aeruginosa assessed as inhibition of microbial growth incubated for 18 hrs by CLSI protocol based Mueller-Hinton broth assay; type: functional
Klebsiella pneumoniae [13] = test: Antimicrobial activity against Klebsiella pneumoniae assessed as inhibition of microbial growth incubated for 18 hrs by CLSI protocol based Mueller-Hinton broth assay; type: functional
[14] = system: Staphylococcus epidermidis; test: Antimicrobial activity against Staphylococcus epidermidis assessed as inhibition of microbial growth incubated for 18 hrs by CLSI protocol based Mueller-Hinton broth assay; type: functional
Salmonella enterica = test: Antimicrobial activity against Salmonella enterica assessed as inhibition of microbial growth incubated for 18 hrs by CLSI protocol based Mueller-Hinton broth assay; type: functional
Aeromonas hydrophila = test: Antibacterial activity against Aeromonas hydrophila assessed as inhibition of microbial growth incubated for 24 hrs by CLSI protocol based Mueller-Hinton broth assay; type: functional
Vibrio cholerae [15] = test: Antibacterial activity against Vibrio cholerae assessed as reduction in bacterial growth measured after 18 to 20 hrs by broth microdilution method; type: functional; details: time 18-20 hrs
Bacillus subtilis [16] = test: Antibacterial activity against Bacillus subtilis assessed as reduction in bacterial growth incubated for 24 hrs by CLSI protocol based Mueller-Hinton broth assay; type: functional
Shigella sonnei = test: Antibacterial activity against Shigella sonnei assessed as inhibition of bacterial growth measured after 18 to 20 hrs by broth microdilution method; type: functional; details: time 18-20 hrs
Shigella boydii = test: Antibacterial activity against Shigella boydii assessed as inhibition of bacterial growth measured after 18 to 20 hrs by broth microdilution method; type: functional; details: time 18-20 hrs
Plesiomonas shigelloides = test: Antibacterial activity against Plesiomonas shigelloides assessed as inhibition of bacterial growth measured after 18 to 20 hrs by broth microdilution method; type: functional; details: time 18-20 hrs
Providencia rettgeri = test: Antibacterial activity against Providencia rettgeri assessed as bacterial growth inhibition incubated for 18 hrs by CLSI protocol based Mueller-Hinton broth assay; type: functional
Shigella flexneri = test: Antibacterial activity against Shigella flexneri assessed as inhibition of bacterial growth incubated for 24 hrs by broth microdilution method; type: functional
Proteus vulgaris [17] = test: Antimicrobial activity against Proteus vulgaris assessed as microbial growth inhibition incubated for 24 hrs by broth microdilution method; type: functional
Enterobacter sp. = test: Antibacterial activity against Enterobacter sp. assessed as inhibition of bacterial growth; type: functional
Morganella morganii [18] = test: Antibacterial activity against Morganella morganii UM869 incubated for 16 to 18 hrs by broth microdilution method; type: functional; details: time 16-18 hrs
Citrobacter freundii = test: Antibacterial activity against multidrug-resistant Citrobacter freundii assessed as bacterial growth inhibition incubated for 20 to 22 hrs by CLSI based analysis; type: functional; details: time 20-22 hrs
Morganella morganii [19] = test: Antibacterial activity against Morganella morganii UM573 assessed as bacterial growth inhibition incubated for 20 to 22 hrs by CLSI based analysis; type: functional; details: time 20-22 hrs
Salmonella paratyphi = test: Antibacterial activity against Salmonella paratyphi A CICC 21501 incubated overnight by standard microtiter dilution method; type: functional, Salmonella enterica subsp. enterica serovar Paratyphi A; details: Salmonella enterica
Escherichia coli [20] = test: Antibacterial activity against Escherichia coli assessed as reduction in bacterial growth incubated for 16 to 20 hrs by Mueller-Hinton broth based two-fold serial dilution method; type: functional; details: time 16-20 hrs
Streptococcus pyogenes [21] = test: Antibacterial activity against Streptococcus pyogenes assessed as reduction in microbial growth incubated for 24 hrs by broth micro-dilution method; type: functional
Pseudomonas aeruginosa [22] = test: Antibacterial activity against Pseudomonas aeruginosa assessed as inhibition of microbial growth by broth micro-dilution method; type: functional
Escherichia coli [23] = test: Antibacterial activity against Escherichia coli assessed as inhibition of microbial growth by broth micro-dilution method; type: functional
Staphylococcus aureus [24] = test: Antibacterial activity against Staphylococcus aureus assessed as inhibition of microbial growth by broth micro-dilution method; type: functional
Streptococcus pyogenes [25] = test: Antibacterial activity against Streptococcus pyogenes assessed as inhibition of microbial growth by broth micro-dilution method; type: functional
Escherichia coli [26] = test: Antibacterial activity against Escherichia coli assessed as reduction in bacterial growth by broth microdilution method; type: functional
Escherichia coli [27] = test: Antibacterial activity Escherichia coli assessed as reduction in bacterial growth; type: functional
Pseudomonas aeruginosa [28] = test: Antibacterial activity against Pseudomonas aeruginosa assessed as reduction in microbial growth after 18 hrs by MTT based broth dilution method; type: functional
Klebsiella pneumoniae [29] = test: Antibacterial activity against Klebsiella pneumoniae assessed as reduction in bacterial growth by broth microdilution method; type: functional
Bacillus subtilis [30] = test: Antibacterial activity against Bacillus subtilis assessed as reduction in bacterial cell viability by well plate method; type: functional
[31] = system: Staphylococcus epidermidis; test: Antibacterial activity against Staphylococcus epidermidis assessed as reduction in microbial growth; type: functional
Bacillus subtilis [32] = test: Antibacterial activity against Bacillus subtilis assessed as zone of inhibition at 50 microg/ml by cup plate analysis; type: functional; details: read-out: IZ
Bacillus pumilus = test: Antibacterial activity against Bacillus pumilus assessed as zone of inhibition at 50 microg/ml by cup plate analysis; type: functional; details: read-out: IZ
Escherichia coli [33] = test: Antibacterial activity against Escherichia coli assessed as zone of inhibition at 50 microg/ml by cup plate analysis; type: functional; details: read-out: IZ
Proteus vulgaris [34] = test: Antibacterial activity against Proteus vulgaris assessed as zone of inhibition at 50 microg/ml by cup plate analysis; type: functional; details: read-out: IZ

Cc1ccc(-c2c(N)c(C#N)nc3[nH]c(=O)[nH]c(=O)c23)cc1
MIC (Bacillus subtilis [1]): 2 µg/mL (≈ 6.82 µM)
MIC (Staphylococcus aureus [2]): 32 µg/mL (≈ 109 µM)
MIC (Escherichia coli [3]): 512 µg/mL (≈ 1750 µM)

Nc1n[nH]c2nc(-c3ccccc3)nc(-c3ccc(Br)cc3)c12
MIC (Enterococcus raffinosus): 12.3 µg/mL (≈ 33.6 µM)
MIC (Staphylococcus aureus [4]): 3.8 µg/mL (≈ 10.4 µM)

COc1ccc(-c2nc(-c3ccccc3)nc3[nH]nc(N)c23)cc1
MIC (Enterococcus raffinosus): 14.2 µg/mL (≈ 44.7 µM)
MIC (Staphylococcus aureus [4]): 4.2 µg/mL (≈ 13.2 µM)

Cc1ccc(-c2cc(-c3ccc(Cl)cc3)nc(/N=C3/C(=O)N(CNCN4CCOCC4)c4ccc(Br)cc43)n2)cc1
MIC (Salmonella typhimurium [5]): 156 µg/mL (≈ 247 µM)
MIC (Vibrio parahaemolyticus): 78.1 µg/mL (≈ 124 µM)
MIC [6]: 39.1 µg/mL (≈ 61.8 µM)
MIC (Edwardsiella tarda): 39.1 µg/mL
MIC (Vibrio cholerae [7]): 39.1 µg/mL (≈ 61.8 µM)
MIC (Staphylococcus aureus [8]): 78.1 µg/mL
MIC (Escherichia coli [9]): 2.44 µg/mL
MIC (Vibrio cholerae [10]): 0.3 µg/mL (≈ 0.475 µM)
MIC (Enterococcus faecalis): 1.22 µg/mL
MIC (Salmonella typhimurium [11]): 19.5 µg/mL
MIC (Pseudomonas aeruginosa [12]): 312 µg/mL
MIC (Klebsiella pneumoniae [13]): 312 µg/mL
MIC [14]: 625 µg/mL
MIC (Salmonella enterica): 9.76 µg/mL
MIC (Aeromonas hydrophila): 312 µg/mL
MIC (Vibrio cholerae [15]): 9.76 µg/mL (≈ 15.4 µM)
MIC (Bacillus subtilis [16]): 9.76 µg/mL (≈ 15.4 µM)
MIC (Shigella sonnei): 312 µg/mL (≈ 494 µM)
MIC (Shigella boydii): 9.76 µg/mL (≈ 15.4 µM)
MIC (Plesiomonas shigelloides): 4.88 µg/mL (≈ 7.72 µM)
MIC (Providencia rettgeri): 39.1 µg/mL (≈ 61.8 µM)
MIC (Shigella flexneri): 312 µg/mL (≈ 494 µM)
MIC (Proteus vulgaris [17]): 312 µg/mL (≈ 494 µM)
MIC (Enterobacter sp.): 156 µg/mL (≈ 247 µM)
MIC (Morganella morganii [18]): 156 µg/mL (≈ 247 µM)
MIC (Citrobacter freundii): 39.1 µg/mL (≈ 61.8 µM)
MIC (Morganella morganii [19]): 156 µg/mL (≈ 247 µM)
MIC (Salmonella paratyphi): 39.1 µg/mL (≈ 61.8 µM)

O=C(O)c1cn(C2CC2)c2cc(N3CCNCC3)c(F)cc2c1=O [CIPROFLOXACIN]
MIC (Escherichia coli [20]): 25 µg/mL (≈ 75.4 µM)
MIC (Streptococcus pyogenes [21]): 12.5 µg/mL
MIC (Pseudomonas aeruginosa [22]): 200 µg/mL
MIC (Escherichia coli [23]): 25 µg/mL
MIC (Staphylococcus aureus [24]): 50 µg/mL
MIC (Streptococcus pyogenes [25]): 50 µg/mL
MIC (Escherichia coli [26]): 25 µg/mL (≈ 75.4 µM)
MIC (Escherichia coli [27]): 22 µg/mL (≈ 66.4 µM)
MIC (Pseudomonas aeruginosa [28]): 22 µg/mL
MIC (Klebsiella pneumoniae [29]): 22 µg/mL (≈ 66.4 µM)
MIC (Bacillus subtilis [30]): 24 µg/mL (≈ 72.4 µM)
MIC [31]: 22 µg/mL

COc1cc(Cc2cnc(N)nc2N)cc(OC)c1OC [TRIMETHOPRIM]
MIC (Salmonella typhimurium [5]): > 5000 µg/mL
MIC (Vibrio parahaemolyticus): 2.44 µg/mL (≈ 8.4 µM)
MIC [6]: 9.76 µg/mL (≈ 33.6 µM)
MIC (Edwardsiella tarda): 312 µg/mL
MIC (Vibrio cholerae [7]): 39.1 µg/mL (≈ 135 µM)
MIC (Staphylococcus aureus [8]): > 5000 µg/mL
MIC (Escherichia coli [9]): 19.5 µg/mL
MIC (Vibrio cholerae [10]): 1.22 µg/mL (≈ 4.2 µM)
MIC (Enterococcus faecalis): 78.1 µg/mL
MIC (Salmonella typhimurium [11]): 4.88 µg/mL
MIC (Pseudomonas aeruginosa [12]): 5000 µg/mL
MIC (Klebsiella pneumoniae [13]): 5000 µg/mL
MIC [14]: > 5000 µg/mL
MIC (Salmonella enterica): 4.88 µg/mL
MIC (Aeromonas hydrophila): 1250 µg/mL
MIC (Vibrio cholerae [15]): 5000 µg/mL (≈ 17200 µM)
MIC (Bacillus subtilis [16]): 5000 µg/mL (≈ 17200 µM)
MIC (Shigella sonnei): 9.76 µg/mL (≈ 33.6 µM)
MIC (Shigella boydii): 9.76 µg/mL (≈ 33.6 µM)
MIC (Plesiomonas shigelloides): 4.88 µg/mL (≈ 16.8 µM)
MIC (Providencia rettgeri): 2500 µg/mL (≈ 8610 µM)
MIC (Shigella flexneri): 156 µg/mL (≈ 538 µM)
MIC (Proteus vulgaris [17]): 156 µg/mL (≈ 538 µM)
MIC (Enterobacter sp.): 156 µg/mL (≈ 538 µM)
MIC (Morganella morganii [18]): 156 µg/mL (≈ 538 µM)
MIC (Citrobacter freundii): 19.5 µg/mL (≈ 67.3 µM)
MIC (Morganella morganii [19]): 156 µg/mL (≈ 538 µM)
MIC (Salmonella paratyphi): 156 µg/mL (≈ 538 µM)

Nc1nc(-c2ccsc2)cc(-c2ccc(Cl)cc2Cl)n1
zone of inhibition at 50 µg/mL (Bacillus subtilis [32]): 16 mm
zone of inhibition at 50 µg/mL (Bacillus pumilus): 13 mm
zone of inhibition at 50 µg/mL (Escherichia coli [33]): 12 mm
zone of inhibition at 50 µg/mL (Proteus vulgaris [34]): 15 mm
